Non-standard residues stand in square brackets, D forms with d. Residues, ends and D or L forms follow the SMILES beside them. Lys(Thioacetyl) = CC(=S)NCCCC[C@H](N)C(=O)O
Assays:
HDAC8 = biological target: T1, HDAC8 (Homo sapiens, UniProt Q9BY41); assay: HPLC-based assay with purified HDAC8 (de(thio)acetylation of peptides); format: biochemical; parameters: key to HDAC8 (sensitive / resistant to HDAC8): +: Sensitive to HDAC8; —: Resistant to HDAC8; details: for formation of de(thio)acetylated peptide product by HDAC8: 0.3 mM peptide, 1.5 μM HDAC8, 2 hours at room temperature; for HDAC8 (sensitive / resistant to HDAC8): enzymatic dethioacetylation by HDAC8
T1 construct: purchased
T1 sequence (Q9BY41 1-377): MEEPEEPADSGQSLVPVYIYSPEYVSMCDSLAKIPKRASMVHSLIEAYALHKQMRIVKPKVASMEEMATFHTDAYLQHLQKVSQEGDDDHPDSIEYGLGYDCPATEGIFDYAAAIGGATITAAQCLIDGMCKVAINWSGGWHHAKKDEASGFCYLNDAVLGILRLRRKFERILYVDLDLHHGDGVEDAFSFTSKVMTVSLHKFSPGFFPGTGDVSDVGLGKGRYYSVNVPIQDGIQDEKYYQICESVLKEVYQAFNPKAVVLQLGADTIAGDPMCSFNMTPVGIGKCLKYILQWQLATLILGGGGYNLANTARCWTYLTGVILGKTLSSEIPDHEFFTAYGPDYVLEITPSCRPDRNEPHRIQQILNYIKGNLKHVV
Experimental: To test the foregoing premise, peptides 1b, 2, and 3a were allowed to be incubated for 2 hours at room temperature in the HDAC8 assay buffer in a HPLC-based HDAC8 assay. […] FIG. 5 provides representative HPLC chromatograms from HDAC8 assays with peptides 1b, 2, and 3a. All assays were performed in duplicate and essentially the same HPLC chromatograms were obtained for the duplicates. The small peak with tR˜27 minutes in the second chromatogram was from a minor impurity in the purified peptide 2 sample, rather than the dethioacetylated product. The lack of detectable dethioacetylation of peptide 3a was apparent from the absence of a peak with tR˜34 minutes, shown for peptide 3c in the third chromatogram.
Assay with purified HDAC8. The purified HDAC8 could be obtained from a commercial source for use with a HPLC-based HDAC8 assay. In brief, a HDAC8 assay solution had the following components: 25 mM Tris.HCl (pH 8.0), 137 mM NaCl, 2.7 mM KCl, 1 mM MgCl2, 1 mg/mL BSA (SIGMA Cat. #A3803 with reduced fatty acid content), 0.3 mM peptide 1b, 2, or 3a, and 1.5 μM HDAC8. […] An enzymatic reaction was initiated by the addition of HDAC8 at room temperature and was allowed to be incubated at room temperature for 2 hours before being quenched with the following stop solution: 1.0 M HCl and 0.16 M acetic acid. The quenched assay solutions were directly injected into a reversed-phase HPLC C18 column (100 Å, 0.46×25 cm), eluting with the following gradients of ddH2O containing 0.05% (v/v) trifluoroacetic acid (mobile phase A) and acetonitrile containing 0.05% (v/v) trifluoroacetic acid (mobile phase B): linear increase from 0% B to 35% B (for the assay with peptide 2 or 1b) or 40% B (for the assay with peptide 3a or […]) from 0-40 minutes (1 mL/min), and UV monitoring at 214 nm. […] The enzymatically formed peptide 1c was confirmed by its comigration with the chemically synthesized authentic sample and by MALDI-TOF mass spectrometric analysis, and was quantified by HPLC peak integration and comparison with that of synthetic authentic sample.

SIRT1, SIRT2, and SIRT3 = assay: Dethioacetylation of inhibitor peptides under the sirtuin inhibition assay conditions; format: biochemical, human; details: same assay conditions as SIRT1/SIRT2/SIRT3 inhibition assays
Experimental: Inhibition assays with purified SIRT1, SIRT2, and SIRT3. GST-SIRT1 that could be produced in a laboratory was used for the SIRT1 inhibition assay. SIRT2 and SIRT3 are obtainable from commercial sources known to those skilled in the art. Consistent HPLC-based assay procedures were used for the inhibition assays with SIRT1, SIRT2, and SIRT3. In brief, an inhibition assay solution had the following components: 25 mM (or 50 mM for SIRT2 assay) Tris.HCl (pH 8.0) 137 mM NaCl, 2.7 mM KCl, 1 mM MgCl2, 1 mg/mL BSA (SIGMA Cat. #A3803 with reduced fatty acid content, for SIRT2 assay only), 0.5 mM β-NAD^+, 0.3 mM peptide substrate (peptide 1b for SIRT1 and SIRT2 assays; peptide 3b for SIRT3 assay), an inhibitor (peptide 1a, 2, or 3a) with varied concentrations including 0, and an enzyme (GST-SIRT1, 0.15 μM; SIRT2, 0.3 μM; or SIRT3, 2.0 μM). […] An enzymatic reaction was initiated by the addition of an enzyme at 37° C. and was allowed to be incubated at 37° C.: 10 minutes as follows: for SIRT1 assay, or 60 minutes for SIRT2 and SIRT3 assays. Incubation was quenched at the indicated time with the following stop solution: 100 mM HCl and 0.16 M acetic acid. The conversion of the limiting substrate to the product was maintained at ≦12%. The quenched assay solutions were directly injected into a reversed-phase HPLC C18 column (100 Å, 0.46×25 cm), eluting with the following gradients of ddH2O containing 0.05% (v/v) trifluoroacetic acid (mobile phase A) and acetonitrile containing 0.05% (v/v) trifluoroacetic acid (mobile phase B): linear increase from 0% B to 35% B (for SIRT1 assay) or 40% B (for SIRT2 and SIRT3 assays) from 0-40 minutes (1 mL/min), and UV monitoring at 214 nm. The enzymatic deacetylation products (peptide 1c in SIRT1 and SIRT2 assays; peptide 3c in SIRT3 assay) were confirmed by their comigration with the chemically synthesized authentic samples and by MALDI-TOF mass spectrometric analysis, and were quantified by HPLC peak integration and comparison with those of synthetic authentic samples. […] All peptide stock solutions were prepared in ddH2O. […]

SMILES	formation of de(thio)acetylated peptide product by HDAC8 (HDAC8)	HDAC8 (sensitive / resistant to HDAC8) (HDAC8)	formation of dethioacetylated peptide under sirtuin inhibition assay conditions (SIRT1, SIRT2, and SIRT3)
CC[C@H](C)[C@H](NC(=O)[C@@H](NC(=O)[C@H](CCCCNC(C)=S)NC(=O)[C@H](CC(=O)O)NC(=O)[C@H](CO)NC(=O)[C@@H]1CCCN1C(=O)[C@@H](N)CCSC)[C@@H](C)O)C(=O)NCC(=O)NCC(=O)O [Peptide 2] (H-MPSD[Lys(Thioacetyl)]TIGG-OH)	no detectable formation	—^d	detectable formation
CC[C@H](C)[C@H](NC(=O)[C@@H](NC(=O)[C@H](CCCCN)NC(=O)[C@H](CCCNC(=N)N)NC(=O)[C@H](CC(C)C)NC(=O)[C@H](CC(C)C)NC(=O)[C@H](CCCNC(=N)N)NC(=O)[C@H](CCCNC(=N)N)NC(=O)[C@H](CCSC)NC(=O)[C@@H](NC(=O)[C@H](CCCCNC(C)=S)NC(=O)CNC(=O)[C@H](CO)NC(=O)[C@H](CCCNC(=N)N)NC(=O)[C@@H](NC(=O)[C@H](CCCCN)NC(=O)[C@@H]1CCCN1C(=O)[C@H](CC(C)C)NC(=O)[C@H](CCCNC(=N)N)NC(=O)[C@@H](N)CCCCN)[C@@H](C)O)C(C)C)[C@@H](C)CC)C(=O)O [Peptide 3a] (H-KRLPKTRSG[Lys(Thioacetyl)]VMRRLLRKII-OH)	no detectable formation	—	did not give rise to detectable formation
